Experimental data from US10709705B2, “Aminopyrimidines as ALK inhibitors” (THE REGENTS OF THE UNIVERSITY OF MICHIGAN, priority 2016, dated 2020).
Like-named read-outs stand apart in the source and are kept apart here.

Key:
[1] = target: T1, INSR (Homo sapiens, UniProt P06213); test: KINOMEscan kinase panel, INSR; format: binding
T1 construct: purchased LeadHunter Discovery Services (currently DiscoverX Corporation), KINOMEscan screening service
Description: (§1) Cpd. No. 5 was screened for its activity against a panel of human kinases using the KINOMEscan™ screening platform from LeadHunter Discovery Services (currently DiscoverX Corporation (Fremont, Calif. 94538, United States). See Table 7.

[2] = Pharmacokinetics in SD rats; format: in vivo; details: Table 8 (SD rats); for AUC0-t (ng · h/mL) PO / AUC0-∞ (ng · h/mL) PO / Cmax(ng/mL) PO / Tmax (h) PO / t1/2 (h) PO: PO 10 mg/kg, 10 mg/kg
Method: Routine pharmacokinetics studies were performed for Cpd. No. 5 in SD rats and beagle dogs.

[3] = target: T2, FES (Homo sapiens, UniProt P07332); test: KINOMEscan kinase panel, FES; format: binding
T2 construct: purchased LeadHunter Discovery Services (currently DiscoverX Corporation), KINOMEscan screening service
Description: as §1

[4] = target: T3, LRRK2(G2019S) (Homo sapiens, UniProt Q5S007, G2019S); test: KINOMEscan kinase panel, LRRK2(G2019S); format: binding
T3 construct: purchased LeadHunter Discovery Services (currently DiscoverX Corporation), KINOMEscan screening service
Description: as §1

[5] = system: H3122 cells (EML4-ALK); test: Cell growth inhibition assay (WST-8), H3122; format: cell-based; details: Homo sapiens, NCI-H3122, read-out: H3122 (nM) (EML4-ALK), 50% of cell growth inhibition (IC50), WST-8, versus DMSO control
Method: H3122 and Kappas-299 cells were purchased from American Type Culture Collection (Manassas, Va., USA) and were used within 2 months after initiating from original stocks. All cell lines were cultured as recommended. For cell growth inhibition assay, cells were treated with different concentrations of the tested compounds, diluted from stock to culture media containing a 0.2% DMSO as the final concentration. Cell viability was determined using the WST-8 cell proliferation assay kit (Dojindo Molecular Technologies) according to manufacturer's instructions. Three independent experiments in triplicates were performed.

[6] = target: T4, wild-type human ALK protein (cytoplasmic domain, amino acid 1058-1620) (Homo sapiens, UniProt Q9UM73); test: Wild-type ALK kinase inhibition, Lance TR-FRET assay; format: biochemical
T4 construct: The cytoplasmic domain (amino acid 1058-1620) of wild-type human ALK protein; purchased Carna Biosciences, Inc (Japan)
Method: The cytoplasmic domain (amino acid 1058-1620) of wild-type human ALK protein expressed as N-terminal GST-fusion protein was purchased from Carna Biosciences, Inc (Japan). Mutated ALK proteins were expressed in SF9 insect cells with N-terminal tags cleaved after purification. Kinase activities of all enzymes were assessed using a Lance® TR-FRET assay kit from Perkin Elmer Life Sciences (Waltham, Mass.). 2.5 μL of compound solution and 5 μL of protein solution were added into a black low volume 384 well microtiter plate which was incubated for 30 minutes with gentle shaking at room temperature, followed by adding 2.5 μL of fluorescently labeled peptide substrate (ULight™-IRS-1 (Tyr983) Peptide) and ATP mixture solution. The kinase reaction was performed in 50 mM HEPES (pH 7.5) with 1 mM EGTA, 1 mM MgCl2, and 2 mM DTT, 0.01% Tween-20 added right before the assay. Final concentrations of ATP, substrates, and DMSO were 100 μM, 20 nM, and 0.5%, respectively. […] Final ALK concentrations were 1 nM, 1 nM, InM, 128 nM, 2 nM, and 4 nM for wild-type, F1174L, L1196M, S1206Y, G1269A, and G1202R, respectively. The reaction was allowed to perform for 90 minutes in dark with gentle shaking at room temperature after which 10 μL of 20 mM EDTA and 2 nM Eu-W1024 anti-phosphotyrosine antibody (PT66) mixture solution in the detection buffer from the manufacturer was added to terminate the reaction and detect the phosphorylation of the peptide substrate. The final mixture was incubated in the dark for 1 hour before the plate was read on a Tecan Infinite M-1000 multi-mode plate reader (Tecan, Durham N.C.) with an excitation wavelength of 320 nm. Emission intensities were measured at both 620 and 665 nm with the intensity ratio between 665 and 620 nm corresponding to the peptide substrate phosphorylation. IC50 values of inhibitors were obtained by fitting the ratio of 665/620 nm vs inhibitor concentrations in a sigmoidal dose-response curve (variable slope) with a non-linear regression.

[7] = target: T5, ALK F1197M (Homo sapiens, UniProt Q9UM73); test: Mutant ALK kinase inhibition, F1197M; format: biochemical; details: Table 5
T5 construct: Mutated ALK proteins were expressed in SF9 insect cells with N-terminal tags cleaved after purification; fused on or other part: N-terminal tag, cleaved after purification

[8] = target: ALK G1202R (Homo sapiens, UniProt Q9UM73, G1202R); test: Mutant ALK kinase inhibition, Lance TR-FRET, G1202R; format: biochemical
Method: Mutated ALK proteins were expressed in SF9 insect cells with N-terminal tags cleaved after purification. […] The kinase reaction was performed in 50 mM HEPES (pH 7.5) with 1 mM EGTA, 1 mM MgCl2, and 2 mM DTT, 0.01% Tween-20 added right before the assay. […] The final mixture was incubated in the dark for 1 hour before the plate was read on a Tecan Infinite M-1000 multi-mode plate reader (Tecan, Durham N.C.) with an excitation wavelength of 320 nm.

[9] = target: T6, LRRK2 (Homo sapiens, UniProt Q5S007); test: KINOMEscan kinase panel, LRRK2; format: binding
T6 construct: purchased LeadHunter Discovery Services (currently DiscoverX Corporation), KINOMEscan screening service
Description: as §1

[10] = target: T7, ALK S1206Y (Homo sapiens, UniProt Q9UM73, S1206Y); test: Mutant ALK kinase inhibition, Lance TR-FRET, S1206Y; format: biochemical; details: Table 5; ATP 100 μM
T7 construct: made in house; host or cells: SF9 insect cells
Method: The cytoplasmic domain (amino acid 1058-1620) of wild-type human ALK protein expressed as N-terminal GST-fusion protein was purchased from Carna Biosciences, Inc (Japan). Mutated ALK proteins were expressed in SF9 insect cells with N-terminal tags cleaved after purification. Kinase activities of all enzymes were assessed using a Lance® TR-FRET assay kit from Perkin Elmer Life Sciences (Waltham, Mass.). 2.5 μL of compound solution and 5 μL of protein solution were added into a black low volume 384 well microtiter plate which was incubated for 30 minutes with gentle shaking at room temperature, followed by adding 2.5 μL of fluorescently labeled peptide substrate (ULight™-IRS-1 (Tyr983) Peptide) and ATP mixture solution. The kinase reaction was performed in 50 mM HEPES (pH 7.5) with 1 mM EGTA, 1 mM MgCl2, and 2 mM DTT, 0.01% Tween-20 added right before the assay. Final concentrations of ATP, substrates, and DMSO were 100 μM, 20 nM, and 0.5%, respectively. […] The final mixture was incubated in the dark for 1 hour before the plate was read on a Tecan Infinite M-1000 multi-mode plate reader (Tecan, Durham N.C.) with an excitation wavelength of 320 nm. Emission intensities were measured at both 620 and 665 nm with the intensity ratio between 665 and 620 nm corresponding to the peptide substrate phosphorylation. […]

[11] = target: T8, INSRR (Homo sapiens, UniProt P14616); test: KINOMEscan kinase panel, INSRR; format: binding
T8 construct: purchased LeadHunter Discovery Services (currently DiscoverX Corporation), KINOMEscan screening service
Description: as §1

[12] = target: T9, LTK (Homo sapiens, UniProt P29376); test: KINOMEscan kinase panel, LTK; format: binding
T9 construct: purchased LeadHunter Discovery Services (currently DiscoverX Corporation), KINOMEscan screening service
Description: as §1

[13] = Sprague-Dawley, rat, in vivo, iv, 1 mg/kg, IV 1 mg/kg
[14] = listed as Cpd. No. 5 (solution)
[15] = listed as Cpd. No. 5 (suspension)

Which results are given for Cc1cc(Nc2ncc(Cl)c(Nc3ccccc3S(=O)(=O)C(C)C)n2)c(OC(C)C)cc1C1=CCN(C2CCOCC2)CC1 [Cpd. No. 5, 5-chloro-N2-(2-isopropoxy-5-methyl-4-(1-(tetrahydro-2H-pyran-4-yl)-1,2,3,6-tetrahydropyridin-4-yl)phenyl)-N4-(2-(isopropylsulfonyl)phenyl)pyrimidine-2,4-diamine]?
Kd [1]: 54 nM; Cmax [2, 13]: 234 ng/mL; Tmax [2, 13]: 4.98 min; AUC(0-t) ([2]; Sprague-Dawley, rat, in vivo, iv, 1 mg/kg, IV 1 mg/kg, read-out: AUC0-t (ng · h/mL) IV): 506 ng·h/mL; AUC(0-inf) ([2]; Sprague-Dawley, rat, in vivo, iv, 1 mg/kg, IV 1 mg/kg, read-out: AUC0-∞ (ng · h/mL) IV): 576 ng·h/mL; half-life ([2]; Sprague-Dawley, rat, in vivo, iv, 1 mg/kg, IV 1 mg/kg, read-out: t1/2 (h) IV (converted)): 3.94 h; MRT inf ([2]; Sprague-Dawley, rat, in vivo, IV 1 mg/kg): 4.54 h; clearance ([2]; Sprague-Dawley, rat, in vivo, IV 1 mg/kg, read-out: CL (iv) (converted)): 29.2 mL/min/kg; Vd ([2]; Sprague-Dawley, rat, in vivo, IV 1 mg/kg, read-out: Vss (iv)): 7.97 L/kg; F(AUC0-t) ([2]; PO 10 mg/kg vs IV 1 mg/kg, solution): 31.1%; AUC0-t (ng · h/mL) PO [2, 14]: 1759 ng·h/mL; AUC0-∞ (ng · h/mL) PO [2, 14]: 1788 ng·h/mL; Cmax(ng/mL) PO [2, 14]: 153 ng/mL; Tmax (h) PO [2, 14]: 2.67 h; t1/2 (h) PO [2, 14]: 3.93 h; AUC0-t (ng · h/mL) PO [2, 15]: 719 ng·h/mL; AUC0-∞ (ng · h/mL) PO [2, 15]: 733 ng·h/mL; Cmax(ng/mL) PO [2, 15]: 75.9 ng/mL; Tmax (h) PO [2, 15]: 3.67 h; t1/2 (h) PO [2, 15]: 4.05 h; Kd [3]: 12 nM; Kd [4]: 6.6 nM; IC50 [5]: 27 nM; IC50 ([6]; Table 4, target not given, Cpd. No. 5 value equals WT ALK IC50 of Table 5, read-out: Inhibitory activity): 0.85 nM; IC50 ([6]; Table 5, ATP 100 μM, read-out: IC50 (nM), WT): 0.85 nM; IC50 [7]: 3.3 nM; IC50 ([8]; Table 5, ATP 100 μM, read-out: IC50 (nM), G1202R): 9.2 nM; IC50 ([8]; Table 6, comparison with known ALK inhibitors, read-out: G1202R IC50): 9.2 nM; Kd [9]: 6.5 nM; IC50 [10]: 1.3 nM; Kd [11]: 32 nM; Kd [12]: 0.62 nM
